Measurements from paper PMC4019507, “From Arylamine N-Acetyltransferase to Folate-Dependent Acetyl CoA Hydrolase: Impact of Folic Acid on the Activity of (HUMAN)NAT1 and Its Homologue (MOUSE)NAT2” (PLoS ONE, 2014).
Values belong to the molecule of their own block, whether it stands above or below them.

What was measured:
Format in all cases: biochemical
[1] = target: T1, (MOUSE)NAT2, murine arylamine N-acetyltransferase Type 2 (Mus musculus, UniProt P50295); experiment: real-time 1H-NMR and DTNB assay of hydrolysis to CoA and acetate
T1 construct: pure recombinant
T1 sequence (P50295 1-290): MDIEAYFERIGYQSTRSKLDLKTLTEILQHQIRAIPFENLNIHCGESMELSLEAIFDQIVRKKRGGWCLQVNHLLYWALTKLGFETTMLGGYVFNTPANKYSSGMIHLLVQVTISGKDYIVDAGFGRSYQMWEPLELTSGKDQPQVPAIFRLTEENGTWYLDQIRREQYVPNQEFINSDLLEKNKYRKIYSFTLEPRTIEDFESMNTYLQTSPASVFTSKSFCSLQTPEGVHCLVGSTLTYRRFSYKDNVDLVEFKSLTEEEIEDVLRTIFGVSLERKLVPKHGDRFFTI

[2] = target: T2, (HUMAN)NAT1, human arylamine N-acetyltransferase Type 1 (Homo sapiens, UniProt P18440); experiment: HPLC time course of hydrolysis to CoA
T2 construct: pure recombinant
T2 sequence (P18440 1-290): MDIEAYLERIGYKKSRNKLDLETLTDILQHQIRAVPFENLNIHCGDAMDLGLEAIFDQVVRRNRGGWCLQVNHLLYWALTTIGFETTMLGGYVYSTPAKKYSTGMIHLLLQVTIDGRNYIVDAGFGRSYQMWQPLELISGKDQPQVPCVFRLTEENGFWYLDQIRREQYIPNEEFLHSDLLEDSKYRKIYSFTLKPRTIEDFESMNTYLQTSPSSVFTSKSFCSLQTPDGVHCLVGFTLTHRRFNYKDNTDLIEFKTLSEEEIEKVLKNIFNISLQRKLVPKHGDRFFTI

[3] = target: T1, (MOUSE)NAT2, murine arylamine N-acetyltransferase Type 2; experiment: DTNB colorimetric assay of folate-dependent AcCoA hydrolysis, dose response
Source text: DTNB colorimetric assay of folate-dependent AcCoA hydrolysis, dose response on (MOUSE)NAT2, murine arylamine N-acetyltransferase Type 2 | its concentration dependence was characterised (Figure 6C).

[4] = target: T1, (MOUSE)NAT2, murine arylamine N-acetyltransferase Type 2; experiment: folate concentration dependence of AcCoA hydrolysis (Michaelis-Menten fit); real-time 1H-NMR of turnover
[5] = target: T2, (HUMAN)NAT1, human arylamine N-acetyltransferase Type 1; experiment: folate concentration dependence of AcCoA hydrolysis (Michaelis-Menten fit); HPLC time course
[6] = target: T1, (MOUSE)NAT2, murine arylamine N-acetyltransferase Type 2; experiment: DTNB colorimetric hydrolysis assay

specific rate of hydrolysis to CoA and acetate [1]: 360 µM/s/mg
specific rate of hydrolysis to CoA [2]: 583 µM/s/mg
SMILES: CC(=O)SCCNC(=O)CCNC(=O)[C@H](O)C(C)(C)COP(=O)(O)OP(=O)(O)OC[C@H]1O[C@@H](n2cnc3c(N)ncnc32)[C@H](O)[C@@H]1OP(=O)(O)O [acetyl Coenzyme A]

IC50 [3]: 0.14 µM
SMILES: Cc1cc(C)cc(NC2=C(NS(=O)(=O)c3ccccc3)C(=O)c3ccccc3C2=O)c1 [compound 1, naphthoquinone 1]

Kd [4]: ~71 µM
Kd [5]: ~75 µM
SMILES: Nc1nc2ncc(CNc3ccc(C(=O)N[C@@H](CCC(=O)O)C(=O)O)cc3)nc2c(=O)[nH]1 [folate]

specific acetyl-CoA hydrolysis rate [6]: 290 µM/s/mg
SMILES: CCC(=O)SCCNC(=O)CCNC(=O)[C@H](O)C(C)(C)COP(=O)(O)OP(=O)(O)OC[C@H]1O[C@@H](n2cnc3c(N)ncnc32)[C@H](O)[C@@H]1OP(=O)(O)O [n-propionyl CoA]
